Holding throughout (assay type): in vivo
Holding throughout (conditions): applied at 1000 g/h, evaluated after 13 days

In test [1] the test system is Echinochloa crus-galli (ECHCG). The experiment in a line: Herbicidal glasshouse test, pre-emergence, ECHCG. Here is the method:
(§1) Seeds of a variety of test species are sown in standard soil in pots (Alopecurus myosuroides (ALOMY), Setaria faberi (SETFA), Echinochloa crus-galli (ECHCG), Solanum nigrum (SOLNI), Amaranthus retoflexus (AMARE), Ipomoea hederacea (IPOHE)). After cultivation for one day (pre-emergence) or after 8 days cultivation (post-emergence) under controlled conditions in a glasshouse (at 24/16° C., day/night; 14 hours light; 65% humidity), the plants are sprayed with an aqueous spray solution derived from the formulation of the technical active ingredient in acetone / water (50:50) solution containing 0.5% Tween 20 (polyoxyethelyene sorbitan monolaurate, CAS RN 9005-64-5). […] The test plants are then grown in a glasshouse under controlled conditions in a glasshouse (at 24/16° C., day/night; 14 hours light; 65% humidity) and watered twice daily. After 13 days for pre and post-emergence, the test is evaluated for the percentage damage caused to the plant. The biological activities are shown in the following table on a five point scale (5=80-100%; 4=60-79%; 3=40-59%; 2=20-39%; 1=0-19%).

The test system of test [2] is Solanum nigrum (SOLNI). In words: Herbicidal glasshouse test, pre-emergence, SOLNI. Here is the method:
as §1

The test system of test [3] is Amaranthus retoflexus (AMARE). In words: Herbicidal glasshouse test, pre-emergence, AMARE. Here is the method: as §1
Test [4] relates to Ipomoea hederacea (IPOHE). The experiment in a line: Herbicidal glasshouse test, pre-emergence, IPOHE. Here is the method: as §1
For test [5], the system named is Solanum nigrum (SOLNI). In words: Herbicidal glasshouse test, post-emergence, SOLNI. Here is the method: as §1
The subject of test [6] is Setaria faberi (SETFA). The experiment in a line: Herbicidal glasshouse test, post-emergence, SETFA. Here is the method:
as §1

For test [7], the system named is Alopecurus myosuroides (ALOMY). In words: Herbicidal glasshouse test, pre-emergence, ALOMY. Here is the method:
as §1

In test [8] the test system is Echinochloa crus-galli (ECHCG). In words: Herbicidal glasshouse test, post-emergence, ECHCG. Here is the method: as §1
The test system of test [9] is Amaranthus retoflexus (AMARE). The experiment in a line: Herbicidal glasshouse test, post-emergence, AMARE. Here is the method:
as §1

The subject of test [10] is Setaria faberi (SETFA). In words: Herbicidal glasshouse test, pre-emergence, SETFA. Here is the method:
as §1

Test [11] concerns Alopecurus myosuroides (ALOMY). The experiment in a line: Herbicidal glasshouse test, post-emergence, ALOMY. Here is the method:
as §1

The subject of test [12] is Ipomoea hederacea (IPOHE). The experiment in a line: Herbicidal glasshouse test, post-emergence, IPOHE. Here is the method:
as §1

The structures appear in SMILES notation.

For the compound `Cn1nnnc1NC(=O)c1nn(C)c(=O)n(Cc2ccc([N+](=O)[O-])cc2)c1=O` [Compound 1.071], the “PRE Application ECHCG, percentage damage (five point scale)” value (shortened to “PRE Application ECHCG, percentage damage”) in test [1] is given as 5 (5=80-100%). In [2], the “PRE Application SOLNI, percentage damage (five point scale)” value (“PRE Application SOLNI, percentage damage” below) is recorded as 5 (5=80-100%). Further, the “PRE Application AMARE, percentage damage (five point scale)” value (from here on “PRE Application AMARE, percentage damage”) in test [3] is recorded as 5 (5=80-100%). Besides, in [4], the “PRE Application IPOHE, percentage damage (five point scale)” value (shortened to “PRE Application IPOHE, percentage damage”) is listed as 5 (5=80-100%). Besides, the “POST Application SOLNI, percentage damage (five point scale)” value in [5] is 5 (5=80-100%). For the same compound, the “POST Application SETFA, percentage damage (five point scale)” value in test [6] is on record as 1 (1=0-19%). In addition, the “PRE Application ALOMY, percentage damage (five point scale)” value (“PRE Application ALOMY, percentage damage” below) in [7] is reported as 5 (5=80-100%). For the same compound, the “POST Application ECHCG, percentage damage (five point scale)” value in test [8] was 4 (4=60-79%). Moreover, the “POST Application AMARE, percentage damage (five point scale)” value in [9] is recorded as 5 (5=80-100%). Also, the “PRE Application SETFA, percentage damage (five point scale)” value (from here on “PRE Application SETFA, percentage damage”) in test [10] is 2 (2=20-39%). For the same compound, in test [11], the “POST Application ALOMY, percentage damage (five point scale)” value is reported as 4 (4=60-79%). In test [12], the “POST Application IPOHE, percentage damage (five point scale)” value was 2 (2=20-39%).

For `Cn1nnnc1NC(=O)c1nn(C)c(=O)n(-c2cccc(F)c2)c1=O` [Compound 1.017], in [1], the “PRE Application ECHCG, percentage damage” value is recorded as 5 (5=80-100%). Also, the “PRE Application SOLNI, percentage damage” value in [2] was 5 (5=80-100%). In addition, the “PRE Application AMARE, percentage damage” value in [3] is listed as 5 (5=80-100%). For the same compound, in [4], the “PRE Application IPOHE, percentage damage” value is on record as 5 (5=80-100%). Further, in test [5], the “POST Application SOLNI, percentage damage (five point scale)” value is 5 (5=80-100%). Moreover, the “POST Application SETFA, percentage damage (five point scale)” value in test [6] was 5 (5=80-100%). For the same compound, the “PRE Application ALOMY, percentage damage” value in [7] was 5 (5=80-100%). The “POST Application ECHCG, percentage damage (five point scale)” value in test [8] is given as 5 (5=80-100%). In addition, in test [9], the “POST Application AMARE, percentage damage (five point scale)” value is recorded as 5 (5=80-100%). In test [10], the “PRE Application SETFA, percentage damage” value is 5 (5=80-100%). Also, the “POST Application ALOMY, percentage damage (five point scale)” value in test [11] is 5 (5=80-100%). The “POST Application IPOHE, percentage damage (five point scale)” value in test [12] is 5 (5=80-100%).

Turning to `Cc1ccc(Cn2c(=O)c(C(=O)Nc3nnnn3C)nn(C)c2=O)cc1` [Compound 1.051], the “PRE Application ECHCG, percentage damage” value in [1] is reported as 5 (5=80-100%). The “PRE Application SOLNI, percentage damage” value in [2] is reported as 5 (5=80-100%). In addition, the “PRE Application AMARE, percentage damage” value in test [3] is given as 5 (5=80-100%). Besides, the “PRE Application IPOHE, percentage damage” value in [4] is given as 5 (5=80-100%). Also, the “POST Application SOLNI, percentage damage (five point scale)” value in test [5] was 5 (5=80-100%). Further, the “POST Application SETFA, percentage damage (five point scale)” value in test [6] is on record as 2 (2=20-39%). Moreover, in [7], the “PRE Application ALOMY, percentage damage” value is recorded as 5 (5=80-100%). Besides, in [8], the “POST Application ECHCG, percentage damage (five point scale)” value is on record as 5 (5=80-100%). For the same compound, the “POST Application AMARE, percentage damage (five point scale)” value in test [9] is recorded as 5 (5=80-100%). Also, the “PRE Application SETFA, percentage damage” value in test [10] was 1 (1=0-19%). In addition, in [11], the “POST Application ALOMY, percentage damage (five point scale)” value was 5 (5=80-100%). For the same compound, in test [12], the “POST Application IPOHE, percentage damage (five point scale)” value is given as 5 (5=80-100%).

With `Cn1nnnc1NC(=O)c1nn(C)c(=O)n(Cc2ccccc2Br)c1=O` [Compound 1.082], the “PRE Application ECHCG, percentage damage” value in test [1] was 5 (5=80-100%). For the same compound, in test [2], the “PRE Application SOLNI, percentage damage” value is 5 (5=80-100%). Besides, in test [3], the “PRE Application AMARE, percentage damage” value is recorded as 5 (5=80-100%). Moreover, the “PRE Application IPOHE, percentage damage” value in test [4] is reported as 5 (5=80-100%). Further, the “POST Application SOLNI, percentage damage (five point scale)” value in test [5] is 5 (5=80-100%). In [6], the “POST Application SETFA, percentage damage (five point scale)” value is given as 2 (2=20-39%). Besides, the “PRE Application ALOMY, percentage damage” value in [7] is 5 (5=80-100%). Also, the “POST Application ECHCG, percentage damage (five point scale)” value in test [8] is on record as 5 (5=80-100%). Besides, the “POST Application AMARE, percentage damage (five point scale)” value in [9] is listed as 5 (5=80-100%). Besides, in test [10], the “PRE Application SETFA, percentage damage” value is 3 (3=40-59%). The “POST Application ALOMY, percentage damage (five point scale)” value in test [11] was 5 (5=80-100%). For the same compound, the “POST Application IPOHE, percentage damage (five point scale)” value in [12] is 5 (5=80-100%).

The values are drawn from patent publication US20160009693A1, “HERBICIDAL COMPOUNDS” (SYNGENTA LIMITED, priority 2013, published 2016).
